Experiments:
SNCA IRE = experiment: MST binding affinity for SNCA IRE (A bulge model RNA); details: microscale thermophoresis; Cy5-labeled RNA
Protocol: (§1) Binding Affinity Measurements: Microscale Thermophoresis (MST). Binding affinity measurements were performed on a Monolith NT.115 MST system (NanoTemper Technologies) with Cy5-labeled oligonucleotides. Briefly, Cy5-labeled RNA (5 nM) was prepared in 1× Folding Buffer and folded by heating at 60° C. for 5 min and then slowly cooling to room temperature. After cooling, Tween-20 was added to a final concentration of 0.1% (v/v). Compound solutions were prepared separately in 30 μL of 1× Assay Buffer at a final concentration of 5 μM (1% (v/v) DMSO), followed by 1:1 serial dilutions in 1× Assay Buffer. RNA and compound solutions were then mixed 1:1 by volume.
(§2) Samples were incubated for 20 min at room temperature and then loaded into premium capillaries (NanoTemper Technologies, Cat #MO-K025). The following parameters were used for MST measurement: 5-20% LED power (adjusted to keep fluorescence intensity between 8000 and 18000), 80% MST power, Laser-On time=30 s, and Laser-Off time=5 s. The resulting data were analyzed by calculating the change in thermophoresis as a function of compound concentration and fitted by Equation (3) in MST analysis software (NanoTemper Technologies) to yield the dissociation constant (Kd):
(§3) where F is the concentration of fluorescently labeled RNA; unbound and bound refer to the thermophoresis signal at completely unbound and bound state of RNA, respectively; c is the concentration of the compound; f (c) is the thermophoresis signal at compound concentration of c; Kd is the dissociation constant.

fully base paired RNA = experiment: MST binding to fully base paired control RNA; details: microscale thermophoresis
Protocol: as §1, §2, §3

SH-SY5Y cells = experiment: proteome-wide analysis in SH-SY5Y cells; format: cell-based, human; details: for number of proteins downregulated / number of proteins upregulated / protein expression of seven genes enriched by Syn-CLIP (global proteomics) / number of proteins affected / percent of proteins affected: 2 μM; for number of proteins affected: of 3,436 (Syn-RiboTAC) or 2,813 (Synucleozid-2.0) proteins detected; for percent of proteins affected: of proteins detected
Protocol: Treatment of SH-SY5Y cells with Syn-RiboTAC for proteome-wide studies. SH-SY5Y cells were seeded in 6-well plates (~60% confluency) and treated with vehicle (0.1% (v/v) DMSO) or Syn-RiboTAC as described above. After 48 h, the cells were gently washed twice with 1× DPBS, harvested by scraping, and resuspended in 1× DPBS. They were then lysed by sonication. Protein concentrations were determined by using BCA Protein Assay Kit (Pierce Biotechnology). Reduction of […]-synuclein protein levels by Syn-RiboTAC were confirmed by Western blotting as described above. Protein samples were then denatured in 50 mM NH4HCO3, pH 8, containing 6 M urea and then reduced with 10 mM TCEP (tris(2-carboxyethyl)phosphine hydrochloride) for 30 min. The proteins were then alkylated with 25 mM iodoacetamide for 30 min in dark. Samples were diluted to 2 M urea containing 50 mM NH4HCO3, pH 8, and digested with trypsin (Thermo Scientific, 1.5 μL of 0.5 μg/μL) containing 1 mM CaCl2) (100× stock in water) at 37° C. for 12 h. Samples were acidified by adding acetic acid to a final concentration of 5% (v/v), desalted by using a self-packed C18 spin column, and dried. Samples obtained were analyzed by LC-MS/MS(as described below), and the MS data were processed with MaxQuant (as described below).
LC-MS/MS analysis and MaxQuant analysis. Peptides obtained above were resuspended in water containing 0.1% (v/v) formic acid and analyzed by using EASY-nLC 1200 nano-UHPLC coupled to Q Exactive HF-X Quadrupole-Orbitrap mass spectrometer (Thermo Scientific). Parameters for the chromatography column and elution methods were the same as previously described.^4 MS data were analyzed by using MaxQuant 14 (V1.6.1.0) and then searched against the human proteome (Uniprot) and a common list of contaminants (included in MaxQuant). The false discovery rate (FDR) for proteins, peptides and sites identification was set at 1%. Parameters were the same as described previously.^4

α-synuclein = α-synuclein protein in iPSC-induced dopaminergic neurons; format: cell-based, human
Protocol: Dopamine neuron induction. For dopamine neuronal induction,^15,16 the dual-SMAD inhibition method^17 was used for floor plate (FP)-based midbrain dopamine (DA) neuron induction with modifications. Prior to differentiation, Matrigel matrix (BD) was thawed at 4° C. overnight or on ice until it is dissolved. Matrigel coated 6-well plates were prepared according to manufacturer's instructions and incubated at 37° C. for at least 1 h before use. iPSCs were dissociated with Accutase (STEMCELL Technologies) and plated (3.5×10^5-4×10^5 cells per cm^2) into a new Matrigel coated plate and grown in mTeSR medium (STEMCELL Technologies) with StemBeads FGF2 (StemCultures) and ROCK inhibitor Y27632 (5 μM, Tocris). After 24 to 48 h, when the cells reached 100% confluency, the differentiation protocol was initiated by feeding the cells with DMEM containing 15% KnockOut Serum Replacement (KSR, Gibco), 2 mM L-glutamine (L-Glut) and 10 μM β-mercaptoethanol for 11 days. […]
ELISA (Enzyme-Linked Immunosorbent Assay). […] After compound treatment, total protein was extracted and quantified as described in Western blotting. The concentration of α-synuclein protein was measured by using Human Alpha-synuclein ELISA Kit (Abcam, ab260052) per the manufacturer's recommendations.

Row | Kd (SNCA IRE) | binding towards the fully base paired RNA (fully base paired RNA) | Compound | number of proteins downregulated (SH-SY5Y cells) | number of proteins upregulated (SH-SY5Y cells) | protein expression of seven genes enriched by Syn-CLIP (global proteomics) (SH-SY5Y cells) | number of proteins affected (SH-SY5Y cells) | percent of proteins affected (SH-SY5Y cells) | α-synuclein protein levels in dopaminergic neurons (in words) (α-synuclein; ELISA, FIG. 3D) | enhancement in selectivity on the proteome vs Synucleozid 1.0 (SH-SY5Y cells) | number of changed proteins that also showed the corresponding change at the transcript level (SH-SY5Y cells; of 194 changed proteins) | percent of changed proteins with corresponding transcript change (SH-SY5Y cells; of 194 changed proteins) | decrease of α-synuclein protein levels in dopaminergic neurons (α-synuclein; 2 μM, PD patient-derived (SNCA triplication))
1 | 66 ± 4 nM | no saturable binding | O=C(CSc1nnc(-c2ccncc2)n1-c1ccc(Br)cc1)Nc1ccc2cn[nH]c2c1 [Synucleozid-2.0] | 55 | 95 | not significantly altered | 150 | 0.53% | decreased α-synuclein protein levels | – | – | – | –
2 | 103 ± 10 nM | no saturable binding | CCOC(=O)C1=C(Nc2ccccc2)S/C(=C\c2ccc(OCCOCCOCCOCCNC(=O)CCCOc3ccc(-n4c(SCC(=O)Nc5ccc6cn[nH]c6c5)nnc4-c4ccncc4)cc3)c(O)c2)C1=O [Syn-RiboTAC] | 114 | 80 | not significantly altered | 194 | 0.56% | – | ~ 16 -fold | 86 | 44% | ~ 50%
